The assay can be described thus: Inhibition of HBV capsid assembly infected in human HepG2(2.2.15) cells assessed as inhibition of intracellular viral DNA level after 8 days by agarose gel electrophoresis method.

One compound from BindingDB's records for doi:10.1021/acs.jmedchem.6b01442 (Tsinghua University, 2017) can be followed below.

For `CC(=O)Nc1ccc(-c2cc(C)c(=O)n(Cc3ccc(Cl)cc3)n2)cc1`, the IC50 amounted to 1.9 µM.
